In patent US10179355B2, “Bioremediation enhancing agents and methods of use” (JRW BIOREMEDIATION, LLC, priority 2007, dated 2019):

System: dechlorinating bacteria known to convert PCE to ethene
Experiment: Set G: Efficiency by VFA Analysis
Assay type: cell-based, Dehalococcoides and Dehalobacter spp.
Description: Sets B, C, D, E, and G further contain figures and tables showing results of the characterization of the Efficiency and the Relative Efficiency of electron donor usage. Efficiency may be defined as the percent of electron donor utilized for dechlorination, and may be calculated by dividing the pmoles of Chloride ion generated by the pmoles of electron donor consumed as measured by either Volatile Fatty Acid (VFA) analysis (Sets B, C, and G) or Chemical Oxygen Demand (COD) analysis (Set D and E). The Relative Efficiency of the electron donor utilization may be defined as the Efficiency of the Electron Donor divided by the Efficiency of the Lactate Control.
The method used to calculate the consumption of the electron donor measured the propionate, acetate and formate levels to calculate the consumption of electron donor over time. The lactate and propionate fermented very rapidly resulting in acetate and formate as the only measurable VFAs.
Set G contained microcosms that tested two different Yeast Metabolites (YM3 and YM4) and a Polysaccharide (PS1) for kinetics and efficiency of electron donor utilization using lactate and molasses as the electron donors. PS1 was also tested as an electron donor by itself.
Lactate at 11.2 mM (1,000 mg/L) and nutrient amendment at 1% of the electron donor levels (˜10 mg/L). Triplicate bottles received 2 micro liters of PCE and 2 ml of inoculum. The bottles were sampled 5 times over a 138 day period.

For `CC(O)C(=O)[O-].[Na+]` (stereo not drawn) [Lactate Control, sodium lactate], the “efficiency of electron donor utilization for dechlorination (in words)” value (Set G) was “statistically more efficient an electron donor as compared to PS1 and molasses”, the “Estimated % Efficiency” value (e^- used dechlorination / e^- used donor) was 5.392% and the “Relative Efficiency” value (relative to Lactate Control = 100%) was 100%.
